Results as given in ChEMBL document CHEMBL1137069, “Design, synthesis and anti-microbial activity of 1H-pyrazole carboxylates” (2004).
Values joined by “and” are separate entries in the source; they are usually repeats but may differ in a detail not shown here. Equal values may be shown once.

What was measured:
Assay type in all cases: functional
Pseudomonas aeruginosa [1] = test: Antibacterial activity against Pseudomonas aeruginosa was determined at 0.5 mg/mL concentration
Alternaria alternata [2] = test: Antifungal activity against Alternaria alternata was determined at 0.1 mg/mL concentration
Staphylococcus aureus [3] = test: Antibacterial activity against Staphylococcus aureus was measured as area of inhibition zone at 0.1 mg/mL concentration
Alternaria alternata [4] = test: Antifungal activity against Alternaria alternata was measured as mycelial growth at 0.1 mg/mL concentration
Thanatephorus cucumeris [5] = test: Antifungal activity against Rhizoctonia solani was determined at 0.5 mg/mL concentration
Escherichia coli [6] = test: Antibacterial activity against Escherichia coli was determined at 0.1 mg/mL concentration
Fusarium oxysporum [7] = test: Antifungal activity against Fusarium oxysporum was measured as mycelial growth at 0.5 mg/mL concentration
Curvularia lunata [8] = test: Antifungal activity against Curvularia lunata was determined at 0.5 mg/mL concentration
Curvularia lunata [9] = test: Antifungal activity against Curvularia lunata was determined at 0.1 mg/mL concentration
Pseudomonas aeruginosa [10] = test: Antibacterial activity against Pseudomonas aeruginosa was determined at 0.1 mg/mL concentration
Thanatephorus cucumeris [11] = test: Antifungal activity against Rhizoctonia solani was measured as mycelial growth at 0.5 mg/mL concentration
Enterococcus faecalis [12] = test: Antibacterial activity against […] was determined at 0.5 mg/mL concentration
Fusarium oxysporum [13] = test: Antifungal activity against Fusarium oxysporum was determined at 0.1 mg/mL concentration
Staphylococcus aureus [14] = test: Antibacterial activity against Staphylococcus aureus was determined at 0.1 mg/mL concentration
Curvularia lunata [15] = test: Antifungal activity against Curvularia lunata was measured as mycelial growth at 0.1 mg/mL concentration
[16] = Antifungal activity against Bipolaris oryzae was determined at 0.5 mg/mL concentration
Fusarium oxysporum [17] = test: Antifungal activity against Fusarium oxysporum was determined at 0.5 mg/mL concentration
[18] = Antifungal activity against Bipolaris oryzae was measured as mycelial growth at 0.5 mg/mL concentration
[19] = Antifungal activity against Bipolaris oryzae was determined at 0.1 mg/mL concentration
[20] = Antibacterial activity against Escherichia coli was measured as area of inhibition zone at 0.1 mg/mL concentration
Curvularia lunata [21] = test: Antifungal activity against Curvularia lunata was measured as mycelial growth at 0.5 mg/mL concentration
Staphylococcus aureus [22] = test: Antibacterial activity against Staphylococcus aureus was determined at 0.5 mg/mL concentration
Pseudomonas aeruginosa [23] = test: Antibacterial activity against Pseudomonas aeruginosa was measured as area of inhibition zone at 0.1 mg/mL concentration; details: Pseudomonas aeruginosa
Enterococcus faecalis [24] = test: Antibacterial activity against […] was determined at 0.1 mg/mL concentration
Alternaria alternata [25] = test: Antifungal activity against Alternaria alternata was measured as mycelial growth at 0.5 mg/mL concentration
Thanatephorus cucumeris [26] = test: Antifungal activity against Rhizoctonia solani was measured as mycelial growth at 0.1 mg/mL concentration
Alternaria alternata [27] = test: Antifungal activity against Alternaria alternata was determined at 0.5 mg/mL concentration
Thanatephorus cucumeris [28] = test: Antifungal activity against Rhizoctonia solani was determined at 0.1 mg/mL concentration
Fusarium oxysporum [29] = test: Antifungal activity against Fusarium oxysporum was measured as mycelial growth at 0.1 mg/mL concentration
Enterococcus faecalis [30] = test: Antibacterial activity against […] was measured as area of inhibition zone at 0.1 mg/mL concentration
Escherichia coli [31] = test: Antibacterial activity against Escherichia coli was determined at 0.5 mg/mL concentration
[32] = Antifungal activity against Bipolaris oryzae was measured as mycelial growth at 0.1 mg/mL concentration

Question: Which results are given for `CCOC(=O)c1cn(-c2ccc([N+](=O)[O-])cc2[N+](=O)[O-])nc1C`?
Answer: inhibition at 500 µg/mL (Pseudomonas aeruginosa [1]): 0%; inhibition at 100 µg/mL (Alternaria alternata [2]): 38.9%; Inhibition Zone (Staphylococcus aureus [3]): 5.3 cm; zone of inhibition at 100 µg/mL (Staphylococcus aureus [3]; Staphylococcus aureus): 82 mm; Mycelial growth (Alternaria alternata [4]): 5.5 cm; inhibition at 500 µg/mL (Thanatephorus cucumeris [5]): 11.1%; inhibition at 100 µg/mL (Escherichia coli [6]): 51.1%; Mycelial growth (Fusarium oxysporum [7]): 5.4 cm; inhibition at 500 µg/mL (Curvularia lunata [8]): 41.1%; inhibition at 100 µg/mL (Curvularia lunata [9]): 27.8%; inhibition at 100 µg/mL (Pseudomonas aeruginosa [10]): 0%; Mycelial growth (Thanatephorus cucumeris [11]): 8 cm; inhibition at 500 µg/mL (Enterococcus faecalis [12]): 84.4%; inhibition at 100 µg/mL (Fusarium oxysporum [13]): 30%; inhibition at 100 µg/mL (Staphylococcus aureus [14]): 58.9%; Mycelial growth (Curvularia lunata [15]): 6.5 cm; inhibition at 500 µg/mL [16]: 5%; inhibition at 500 µg/mL (Fusarium oxysporum [17]): 40%; Mycelial growth [18]: 4.5 cm; inhibition at 100 µg/mL [19]: 33.3%; Inhibition Zone [20]: 7.8 cm and 4.6 cm; zone of inhibition at 100 µg/mL ([20]; Escherichia coli): 50 mm; Mycelial growth (Curvularia lunata [21]): 5.3 cm; inhibition at 500 µg/mL (Staphylococcus aureus [22]): 91.1%; zone of inhibition at 100 µg/mL (Pseudomonas aeruginosa [23]): 0 mm; inhibition at 100 µg/mL (Enterococcus faecalis [24]): 55.6%; Mycelial growth (Alternaria alternata [25]): 4.8 cm; Mycelial growth (Thanatephorus cucumeris [26]): 9 cm; inhibition at 500 µg/mL (Alternaria alternata [27]): 46.7%; inhibition at 100 µg/mL (Thanatephorus cucumeris [28]): 0%; Mycelial growth (Fusarium oxysporum [29]): 6.3 cm; zone of inhibition at 100 µg/mL (Enterococcus faecalis [30]): 76 mm; inhibition at 500 µg/mL (Escherichia coli [31]): 86.7%; Mycelial growth [32]: 6 cm
